Test results reported in US20240316022A1 (TYRA BIOSCIENCES, INC., priority 2021, published 2024).

How the values were obtained:
[1] = molecular target: T1, FGFR1 (Homo sapiens, UniProt P11362); experiment: Kinase binding assay (kinase-tagged T7 phage, qPCR), Kd; settings: read-out: FGFR1 (Kd nM)
T1 construct: made in house; host or cells: E. coli derived from BL21, infected with T7 phage

[2] = molecular target: T2, FGFR2 (Homo sapiens, UniProt P21802); experiment: as above; settings: read-out: FGFR2 (Kd nM)
T2 construct: made in house; host or cells: E. coli derived from BL21, infected with T7 phage

[3] = molecular target: T3, FGFR3 (Homo sapiens, UniProt P22607); experiment: as above; settings: read-out: FGFR3 (Kd nM)
T3 construct: made in house; host or cells: E. coli derived from BL21, infected with T7 phage

[4] = molecular target: T4, FGFR4 (Homo sapiens, UniProt P22455); experiment: as above; settings: read-out: FGFR4 (Kd nM)
T4 construct: made in house; host or cells: E. coli derived from BL21, infected with T7 phage

[5] = molecular target: T5, BCR-FGFR1 Ba/F3 (Homo sapiens, UniProt P11362); experiment: Ba/F3 cell viability assay (CellTiter-Glo 2.0); assay type: cell-based; settings: Ba/F3 BCR-FGFR1 cells, 48 hours
T5 construct: host or cells: Ba/F3; the other entry of the earlier key: BCR (P11274, Breakpoint cluster region protein)
Text: (§1) Experimental Purpose: Recombinant kinase fusions are transduced into parental Ba/F3, which becomes dependent upon this constitutive kinase activity for IL3-independent survival. Inhibition of kinase activity leads to cell death, which is monitored using CellTiter-Glo® 2.0 (Promega) which measures intracellular ATP concentration that in turn serves as a marker for viability. BCR-FGFR4 Ba/F3, BCR-FGFR1 Ba/F3 and FGFR3-BAIAP2L1 Ba/F3 were obtained from Advanced Cellular Dynamics (Seattle, WA)
(§2) Cell Viability Assay Procedure: Cell Titer-Glo® 2.0 Luminescent cell viability assay reagent was purchased from Promega (Madison, WI). BCR-FGFR4 Ba/F3, BCR-FGFR1 Ba/F3 and FGFR3-BAIAP2L1 Ba/F3 cells were cultured in RPMI1640 media supplemented with 10% fetal bovine serum. Cultures were maintained at 37° C. in a humidified atmosphere of 5% CO2 and 95% air.
(§3) Cells were plated in 96-well clear bottom/white plates (Corning #3903) at 10,000 cells/well in 100 μl of media, incubated overnight. The next day, test compound DMSO stock solutions were made at 10 mM and 2 μM final concentration. Compounds were then added to cells in a 9-dose, 10-fold dilution series starting at 30 μM with an HP 300e Digital Dispenser (each dose was applied in triplicate). DMSO was backfilled to each well up to 301 nL total volume of test compound+DMSO, and a total of 301 nL DMSO was added to a control/no test compound well in triplicate. The cells in cell culture plates were incubated with the compounds at 37° C. and 5% CO2 for 48 hours. Then 50 μl of Cell Titer Glo 2.0 reagent was added to each well of the cell culture plates. The contents were covered from light and mixed on an orbital shaker at room temperature for 10 min. Luminescence was recorded by a Synergy H1 Microplate Reader (Biotek, Winooski, VT). Cells were assessed as a percentage of DMSO only treated control cells. Curves were plotted and IC50 values were calculated using the GraphPad Prism 8 program based on a sigmoidal dose-response equation (4 parameter).

[6] = molecular target: T6, FGFR3-BAIAP2L1 Ba/F3 (Homo sapiens, UniProt P22607); experiment: Ba/F3 cell viability assay (CellTiter-Glo 2.0); assay type: cell-based; settings: Ba/F3 FGFR3-BAIAP2L1 cells, 48 hours
T6 construct: host or cells: Ba/F3; the other entry of the earlier key: BAIAP2L1 (Q9UHR4, BAR/IMD domain-containing adapter protein 2-like 1)
Text: as §1, §2, §3

T1 sequence (P11362 22-822): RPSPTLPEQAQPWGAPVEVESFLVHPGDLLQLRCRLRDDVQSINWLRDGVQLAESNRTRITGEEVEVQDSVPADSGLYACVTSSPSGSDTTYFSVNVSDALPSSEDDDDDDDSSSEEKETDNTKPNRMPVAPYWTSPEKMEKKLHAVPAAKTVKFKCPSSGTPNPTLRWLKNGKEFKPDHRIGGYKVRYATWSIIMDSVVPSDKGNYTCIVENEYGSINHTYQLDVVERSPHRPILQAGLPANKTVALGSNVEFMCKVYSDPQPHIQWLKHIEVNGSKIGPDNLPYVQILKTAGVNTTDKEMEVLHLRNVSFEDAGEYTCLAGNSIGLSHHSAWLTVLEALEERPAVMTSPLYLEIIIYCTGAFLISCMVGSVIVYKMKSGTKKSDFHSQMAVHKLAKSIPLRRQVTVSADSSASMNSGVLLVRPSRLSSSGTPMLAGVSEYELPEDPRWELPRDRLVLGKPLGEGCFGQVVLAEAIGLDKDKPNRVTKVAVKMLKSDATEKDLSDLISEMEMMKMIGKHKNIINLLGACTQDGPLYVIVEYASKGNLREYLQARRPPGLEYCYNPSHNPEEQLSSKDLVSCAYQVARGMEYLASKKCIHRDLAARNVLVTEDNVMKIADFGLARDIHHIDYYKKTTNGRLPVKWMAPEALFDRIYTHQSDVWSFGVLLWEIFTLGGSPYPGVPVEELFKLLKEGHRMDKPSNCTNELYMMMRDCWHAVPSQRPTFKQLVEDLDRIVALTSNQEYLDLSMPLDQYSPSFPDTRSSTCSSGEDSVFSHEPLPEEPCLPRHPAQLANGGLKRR
T2 sequence (P21802 22-821): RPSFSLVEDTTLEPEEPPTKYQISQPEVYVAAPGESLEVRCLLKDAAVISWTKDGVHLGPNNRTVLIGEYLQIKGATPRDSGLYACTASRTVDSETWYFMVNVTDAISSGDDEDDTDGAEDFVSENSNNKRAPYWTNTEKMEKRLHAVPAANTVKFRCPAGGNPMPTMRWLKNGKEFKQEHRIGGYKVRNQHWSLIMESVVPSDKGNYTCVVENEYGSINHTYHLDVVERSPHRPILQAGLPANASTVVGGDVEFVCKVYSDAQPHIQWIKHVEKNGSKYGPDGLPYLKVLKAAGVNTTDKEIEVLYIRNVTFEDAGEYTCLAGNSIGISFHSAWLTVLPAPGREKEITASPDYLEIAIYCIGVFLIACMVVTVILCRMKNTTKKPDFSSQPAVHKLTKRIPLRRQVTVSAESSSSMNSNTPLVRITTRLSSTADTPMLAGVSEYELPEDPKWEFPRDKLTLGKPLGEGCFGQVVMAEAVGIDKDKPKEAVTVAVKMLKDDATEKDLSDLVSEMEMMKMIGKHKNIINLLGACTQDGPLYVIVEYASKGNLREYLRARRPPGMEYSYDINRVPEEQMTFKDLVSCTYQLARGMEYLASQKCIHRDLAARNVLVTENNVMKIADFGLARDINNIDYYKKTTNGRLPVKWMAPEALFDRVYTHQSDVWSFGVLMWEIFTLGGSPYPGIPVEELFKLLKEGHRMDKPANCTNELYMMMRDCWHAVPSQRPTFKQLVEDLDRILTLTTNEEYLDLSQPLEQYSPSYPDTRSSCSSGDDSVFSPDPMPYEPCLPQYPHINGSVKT
T6 sequence (P22607 397-758 limits assumed): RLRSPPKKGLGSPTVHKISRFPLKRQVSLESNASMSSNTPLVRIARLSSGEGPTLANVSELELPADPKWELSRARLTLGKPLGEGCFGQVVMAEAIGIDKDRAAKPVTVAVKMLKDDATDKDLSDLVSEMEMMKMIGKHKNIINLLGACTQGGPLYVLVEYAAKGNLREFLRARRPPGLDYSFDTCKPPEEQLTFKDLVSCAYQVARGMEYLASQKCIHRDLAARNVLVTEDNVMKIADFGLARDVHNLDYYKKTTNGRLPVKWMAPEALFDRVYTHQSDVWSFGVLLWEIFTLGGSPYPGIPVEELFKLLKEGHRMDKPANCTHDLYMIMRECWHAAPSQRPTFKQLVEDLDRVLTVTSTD
T4 sequence (P22455 22-802): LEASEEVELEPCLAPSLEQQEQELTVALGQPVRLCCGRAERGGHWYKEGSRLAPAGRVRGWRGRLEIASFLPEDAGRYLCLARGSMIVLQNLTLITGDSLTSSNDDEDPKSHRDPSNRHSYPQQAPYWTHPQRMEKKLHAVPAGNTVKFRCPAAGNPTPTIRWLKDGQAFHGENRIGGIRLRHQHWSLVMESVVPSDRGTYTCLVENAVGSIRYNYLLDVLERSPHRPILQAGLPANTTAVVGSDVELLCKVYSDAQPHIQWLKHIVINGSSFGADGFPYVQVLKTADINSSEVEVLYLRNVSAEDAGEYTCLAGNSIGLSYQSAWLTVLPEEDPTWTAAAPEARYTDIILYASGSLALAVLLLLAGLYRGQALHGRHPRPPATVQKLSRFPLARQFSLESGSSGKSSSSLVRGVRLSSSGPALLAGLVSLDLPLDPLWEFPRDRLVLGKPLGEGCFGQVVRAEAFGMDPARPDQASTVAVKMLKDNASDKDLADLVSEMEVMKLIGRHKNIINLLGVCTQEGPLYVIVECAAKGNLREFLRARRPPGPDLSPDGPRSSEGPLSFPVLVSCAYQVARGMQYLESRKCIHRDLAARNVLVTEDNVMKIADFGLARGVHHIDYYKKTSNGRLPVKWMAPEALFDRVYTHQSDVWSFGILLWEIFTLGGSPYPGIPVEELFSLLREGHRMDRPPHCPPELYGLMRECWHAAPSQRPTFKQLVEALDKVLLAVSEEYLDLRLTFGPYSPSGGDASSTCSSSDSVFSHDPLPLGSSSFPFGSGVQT
T5 sequence (P11362 478-767 limits assumed): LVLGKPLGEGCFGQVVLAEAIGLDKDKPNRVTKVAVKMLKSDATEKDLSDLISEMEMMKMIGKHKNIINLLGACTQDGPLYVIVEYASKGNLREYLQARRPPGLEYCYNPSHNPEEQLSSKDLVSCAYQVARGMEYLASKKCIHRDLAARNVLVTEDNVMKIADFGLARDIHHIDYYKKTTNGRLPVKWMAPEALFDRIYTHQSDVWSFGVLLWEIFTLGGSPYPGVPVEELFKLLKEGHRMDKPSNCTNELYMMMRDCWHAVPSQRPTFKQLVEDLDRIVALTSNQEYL
T3 sequence (P22607 23-806): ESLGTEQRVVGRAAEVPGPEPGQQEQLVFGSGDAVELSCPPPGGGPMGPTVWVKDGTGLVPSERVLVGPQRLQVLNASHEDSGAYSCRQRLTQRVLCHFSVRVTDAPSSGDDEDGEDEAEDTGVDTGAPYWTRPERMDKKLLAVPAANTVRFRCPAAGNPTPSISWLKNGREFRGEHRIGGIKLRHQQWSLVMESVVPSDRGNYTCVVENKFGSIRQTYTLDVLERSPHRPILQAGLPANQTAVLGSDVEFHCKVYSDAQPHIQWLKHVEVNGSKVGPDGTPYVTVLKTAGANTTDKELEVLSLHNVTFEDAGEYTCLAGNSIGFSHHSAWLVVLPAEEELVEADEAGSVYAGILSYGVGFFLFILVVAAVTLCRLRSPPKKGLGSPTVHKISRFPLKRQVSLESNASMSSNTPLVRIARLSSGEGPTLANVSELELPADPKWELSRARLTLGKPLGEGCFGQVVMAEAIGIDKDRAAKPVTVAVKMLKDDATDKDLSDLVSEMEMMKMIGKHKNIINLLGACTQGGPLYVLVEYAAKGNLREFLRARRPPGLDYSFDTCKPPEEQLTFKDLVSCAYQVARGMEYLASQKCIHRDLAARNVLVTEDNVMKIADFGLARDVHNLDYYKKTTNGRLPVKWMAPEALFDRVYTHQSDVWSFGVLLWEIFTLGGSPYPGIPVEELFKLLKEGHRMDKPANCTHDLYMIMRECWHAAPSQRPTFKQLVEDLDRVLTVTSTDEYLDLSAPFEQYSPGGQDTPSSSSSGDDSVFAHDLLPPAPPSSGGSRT

| Compound | Kd [1] | Kd [2] | Kd [3] | Kd [4] | IC50 [5] | IC50 [6] |
| --- | --- | --- | --- | --- | --- | --- |
| C[C@@H](Oc1ccc2[nH]nc(-c3cnc4c(c3)N(S(C)(=O)=O)CCO4)c2c1)c1c(Cl)cncc1Cl [Example 137, 7-[5-[(1R)-1-(3,5-dichloro-4-pyridyl)ethoxy]-1H-indazol-3-yl]-1-methylsulfonyl-2,3-dihydropyrido[2,3-b][1,4]oxazine] | 250 to 1000 nM | 100 to 250 nM | 0.1 to 100 nM | 0.1 to 100 nM | 250 to 1000 nM | 0.1 to 100 nM |
| Cc1cc(-c2n[nH]c3ccc(O[C@H](C)c4c(Cl)cncc4Cl)cc23)cnc1NC1CCOCC1 [Example 151, (R)-5-(5-(1-(3,5-Dichloropyridin-4-yl)ethoxy)-1H-indazol-3-yl)-3-methyl-N-(tetrahydro-2H-pyran-4-yl)pyridin-2-amine] | 100 to 250 nM | 100 to 250 nM | 0.1 to 100 nM | 0.1 to 100 nM | 250 to 1000 nM | 0.1 to 100 nM |
| CCN1CCC2(CC1)CC(=O)c1cc(-c3n[nH]c4ccc(O[C@H](C)c5c(Cl)cncc5Cl)cc34)ccc1O2 [Example 95, (R)-6-(5-(1-(3,5-Dichloropyridin-4-yl)ethoxy)-1H-indazol-3-yl)-1′-ethylspiro[chromane-2,4′-piperidin]-4-one] | 0.1 to 100 nM | 0.1 to 100 nM | 0.1 to 100 nM | 0.1 to 100 nM | 100 to 250 nM | 0.1 to 100 nM |
| Cc1cc(-c2n[nH]c3ccc(O[C@H](C)c4c(Cl)cnc(C)c4Cl)cc23)cnc1N[C@@H]1CCOC1 [Example 164, 5-[5-[(1R)-1-(3,5-dichloro-2-methyl-4-pyridyl)ethoxy]-1H-indazol-3-yl]-3-methyl-N-[(3R)-tetrahydrofuran-3-yl]pyridin-2-amine] | 250 to 1000 nM | 0.1 to 100 nM | 0.1 to 100 nM | 0.1 to 100 nM | > 1000 nM | 0.1 to 100 nM |
| Cc1ncc(Cl)c([C@@H](C)Oc2ccc3[nH]nc(-c4ccc(N[C@H]5CCOC5)nc4)c3c2)c1Cl [Example 160, 5-[5-[(1R)-1-(3,5-dichloro-2-methyl-4-pyridyl)ethoxy]-1H-indazol-3-yl]-N-[(3S)-tetrahydrofuran-3-yl]pyridin-2-amine] | 0.1 to 100 nM | 0.1 to 100 nM | 0.1 to 100 nM | 0.1 to 100 nM | 100 to 250 nM | 0.1 to 100 nM |
| C[C@@H](Oc1ccc2[nH]nc(-c3ccc4c(c3)COC3(CCN(C5CCC5)CC3)O4)c2c1)c1c(Cl)cncc1Cl [Example 157, (R)-1′-Cyclobutyl-6-(5-(1-(3,5-dichloropyridin-4-yl)ethoxy)-1H-indazol-3-yl)-4H-spiro[benzo[d][1,3]dioxine-2,4′-piperidine]] | 0.1 to 100 nM | 0.1 to 100 nM | 0.1 to 100 nM | 0.1 to 100 nM | 250 to 1000 nM | 0.1 to 100 nM |
| COc1c(F)cc(-c2n[nH]c3ccc(O[C@H](C)c4c(C)cnnc4C)cc23)cc1C#N [Example 82, 5-[5-[(1R)-1-(3,5-dimethylpyridazin-4-yl)ethoxy]-1H-indazol-3-yl]-3-fluoro-2-methoxy-benzonitrile] | 100 to 250 nM | 100 to 250 nM | 0.1 to 100 nM | 0.1 to 100 nM | – | 100 to 250 nM |
| COc1ncc(-c2n[nH]c3ccc(O[C@H](C)c4c(Cl)cncc4Cl)cc23)cc1NC(=O)c1ccccn1 [Example 2, (R)—N-(5-(5-(1-(3,5-Dichloropyridin-4-yl)ethoxy)-1H-indazol-3-yl)-2-methoxypyridin-3-yl)picolinamide] | > 1000 nM | > 1000 nM | > 1000 nM | 0.1 to 100 nM | – | – |
| C[C@@H](Oc1ccc2[nH]nc(-c3ccc4c(c3)CCC3(CCNCC3)O4)c2c1)c1c(Cl)cncc1Cl [Example 104, 6-[5-[(1R)-1-(3,5-dichloro-4-pyridyl)ethoxy]-1H-indazol-3-yl]spiro[chromane-2,4′-piperidine]] | 0.1 to 100 nM | 0.1 to 100 nM | 0.1 to 100 nM | 0.1 to 100 nM | – | – |
| C[C@@H](Oc1ccc2[nH]nc(-c3cnc4c(c3)N(CC(F)(F)F)CCO4)c2c1)c1c(Cl)cncc1Cl [Example 139, (R)-7-(5-(1-(3,5-dichloropyridin-4-yl)ethoxy)-1H-indazol-3-yl)-1-(2,2,2-trifluoroethyl)-2,3-dihydro-1H-pyrido[2,3-b][1,4]oxazine 2,2,2-trifluoroacetate] | > 1000 nM | > 1000 nM | > 1000 nM | > 1000 nM | – | – |
| Cc1cnnc(C)c1[C@@H](C)Oc1ccc2[nH]nc(-c3cnc(O[C@H]4CCOC4)c(C#N)c3)c2c1 [Example 127, 5-(5-((R)-1-(3,5-dimethylpyridazin-4-yl)ethoxy)-1H-indazol-3-yl)-2-(((S)-tetrahydrofuran-3-yl)oxy)nicotinonitrile] | 100 to 250 nM | 0.1 to 100 nM | 0.1 to 100 nM | 0.1 to 100 nM | – | – |
| C[C@@H](Oc1ccc2[nH]nc(-c3ccc(S(C)(=O)=O)nc3)c2c1)c1c(Cl)cncc1Cl [Example 10, (R)-5-(1-(3,5-Dichloropyridin-4-yl)ethoxy)-3-(6-(methylsulfonyl)pyridin-3-yl)-1H-indazole] | 0.1 to 100 nM | 0.1 to 100 nM | 0.1 to 100 nM | 0.1 to 100 nM | – | – |
| COc1cc(-c2n[nH]c3ccc(O[C@H](C)c4c(C)cnnc4C)cc23)cc(C#N)c1F [Example 93, (R)-5-(5-(1-(3,5-dimethylpyridazin-4-yl)ethoxy)-1H-indazol-3-yl)-2-fluoro-3-methoxybenzonitrile] | > 1000 nM | > 1000 nM | > 1000 nM | 100 to 250 nM | – | – |
| COc1cc2[nH]nc(-c3cnc(O[C@@H]4CCOC4)c(C#N)c3)c2cc1O[C@H](C)c1c(Cl)cncc1Cl [Example 136, 5-(5-((R)-1-(3,5-dichloropyridin-4-yl)ethoxy)-6-methoxy-1H-indazol-3-yl)-2-(((R)-tetrahydrofuran-3-yl)oxy)nicotinonitrile] | 0.1 to 100 nM | 0.1 to 100 nM | 0.1 to 100 nM | 0.1 to 100 nM | – | – |
| C[C@@H](Oc1cc2c(-c3cnc(O[C@@H]4CCOC4)c(C#N)c3)n[nH]c2cc1F)c1c(Cl)cncc1Cl [Example 138, 5-(5-((R)-1-(3,5-dichloropyridin-4-yl)ethoxy)-6-fluoro-1H-indazol-3-yl)-2-(((R)-tetrahydrofuran-3-yl)oxy)nicotinonitrile] | 100 to 250 nM | 250 to 1000 nM | 0.1 to 100 nM | 0.1 to 100 nM | – | – |
| COc1cc2[nH]nc(-c3cc(C#N)c(OC)c(OC)c3)c2cc1O[C@H](C)c1c(C)cnnc1C [Example 102, (R)-5-(5-(1-(3,5-dimethylpyridazin-4-yl)ethoxy)-6-methoxy-1H-indazol-3-yl)-2,3-dimethoxybenzonitrile] | 100 to 250 nM | 100 to 250 nM | 0.1 to 100 nM | 0.1 to 100 nM | – | – |
| Cc1cnnc(C)c1[C@@H](C)Oc1ccc2[nH]nc(-c3cc(C#N)cc(N4CCOCC4)c3)c2c1 [Example 64, 3-[5-[(1R)-1-(3,5-Dimethylpyridazin-4-yl)ethoxy]-1H-indazol-3-yl]-5-morpholino-benzonitrile] | > 1000 nM | > 1000 nM | > 1000 nM | 100 to 250 nM | – | – |
| C[C@@H](Oc1ccc2[nH]nc(-c3cnc(N[C@H]4CCOC4)c(C#N)c3)c2c1)c1c(Cl)cncc1Cl [Example 129, 5-(5-((R)-1-(3,5-dichloropyridin-4-yl)ethoxy)-1H-indazol-3-yl)-2-(((S)-tetrahydrofuran-3-yl)amino)nicotinonitrile] | 0.1 to 100 nM | 0.1 to 100 nM | 0.1 to 100 nM | 0.1 to 100 nM | – | – |
| COc1cc(-c2n[nH]c3ccc(O[C@H](C)c4c(C)cnnc4C)cc23)cc2c1OC1(CCN(C(C)C)CC1)OC2 [Example 125, (R)-6-(5-(1-(3,5-dimethylpyridazin-4-yl)ethoxy)-1H-indazol-3-yl)-1′-isopropyl-8-methoxy-4H-spiro[benzo[d][1,3]dioxine-2,4′-piperidine]] | 0.1 to 100 nM | 0.1 to 100 nM | 0.1 to 100 nM | 0.1 to 100 nM | – | – |
